Reference: patent US20220105051A1, “COMPOUNDS FOR INCREASING MHC-I EXPRESSION AND MODULATING HISTONE DEACETYLASE ACTIVITY” (Cava Healthcare Inc., priority 2019, published 2022)
“Also recorded” adds a separate entry of the source.

Experiments:
[1] = test system: A9 metastatic tumour cells; experiment: In vivo tumour trial; set-up: species or system C57BL/6 mice; conditions: daily i.p. for 12 days; for anti-tumour effect compared among the treatments / tumour volume / tumour growth compared to vehicle control: A9 tumours; for anti-tumour effect compared among the treatments: 5.2 mg/kg; for tumour volume / tumour growth compared to vehicle control / body weight: P02-113 and P03-97-1 5.2 mg/kg, TSA 0.5 mg/kg
Procedure: The metastatic cell line, A9, was grown in the DMEM, as previously described without, the addition of antibiotics (penicillin and streptomycin, P/S). Once cells reached 75-80% confluence, they were trypsinized (0.05%, Gibco) and washed with HBSS (Hanks balanced salt solution). The cells were counted using the Bio-RAD TC20 automated cell counter and suspended to a concentration of […] in HBSS. Thirty-two synergistic female C57BL/6 mice, between the ages 6-8 weeks, were subcutaneously injected in the right flank with 50 μL containing 5×10^4 A9 metastatic tumour cells. Seven days following tumour inoculation i.p. treatment began daily for 12 days. Four treatment groups were studied, with eight animals per group. […] Body weights were measured three times a week and once tumours developed they were measured with calipers and tumour volume was calculated. Twelve days after starting treatment, mice were euthanized and tumours were collected and weighed. The tumours were then processed for flow cytometry analysis. Tumours were cut into small pieces and incubated RPMI (Gibco; with P/S 0.5%, Sodium pyruvate 1%, and L-glutamine 1%) and 3 mg/mL collagenase A (Roche) for one hour at 37° C. with shaking. Dissociated tumour cells were passed through a 100 μm filter and spun down at 15,000×RCF for 3 minutes. The pellet was washed once in FACs buffer (2% FBS in PBS) and spun down. The pellet was next suspended in red blood cell (RBC) lysis buffer and kept at room temperature for 5 minutes before being neutralized by the addition of 5 ml of PBS and spun down. If pellets were still found to contain RBCs this step was repeated. Once all RBCs were removed cells were suspended in FACs buffer to a concentration of 10^7 cells/mL. A total volume of 200 ul of cells from each tumour were added to a 96 well plate (Falcon) and incubated with Fc Blocker (Biolegend, 1:400) for twenty minutes at 4° C. The 96 well plate was spun down at 1,200 rmp for three minutes and supernatant was removed. The cells were then suspended in 150 ul of FACs buffer containing anti-CD8a (PE-Cy7, 1:200, eBioscience) and CD4 (APC, 1:200, Biolegend) antibodies and incubated at 4° Celsius for 20 minutes. The cells were washed twice and spun down using FACs buffer before being to flow cytometry tubes in a final volume of 200 ul of FACs buffer containing 7AAD (Biolegend 1:200). Flow cytometry was performed on LSRII (BDBiosciences) and analysis was done using FlowJo (Flow cytometry Analysis Software).
Treatment of tumour-bearing mice with identified compounds. 5×10^4 A9 cells suspended in HBSS were subcutaneously (s.c.) transplanted into the right flank of 32 eight-week-old female C57BI/6 mice, as previously described 75. […] Body weight and tumours (once established) were measured every 2-4 days (more often as tumour size increased). Tumours were measured using calipers and volume was calculated as following: tumour volume=length×width^2. The tumour growth rate was assessed using methods previously described^28.

HDAC3 = biological target: T1, HDAC3 (Homo sapiens, UniProt O15379); experiment: Individualized HDAC assay, HDAC3; type: biochemical; conditions: purified enzyme, 5 to 0.02 μM
T1 construct: purchased BPS Biosciences
T1 sequence (O15379 whole entry): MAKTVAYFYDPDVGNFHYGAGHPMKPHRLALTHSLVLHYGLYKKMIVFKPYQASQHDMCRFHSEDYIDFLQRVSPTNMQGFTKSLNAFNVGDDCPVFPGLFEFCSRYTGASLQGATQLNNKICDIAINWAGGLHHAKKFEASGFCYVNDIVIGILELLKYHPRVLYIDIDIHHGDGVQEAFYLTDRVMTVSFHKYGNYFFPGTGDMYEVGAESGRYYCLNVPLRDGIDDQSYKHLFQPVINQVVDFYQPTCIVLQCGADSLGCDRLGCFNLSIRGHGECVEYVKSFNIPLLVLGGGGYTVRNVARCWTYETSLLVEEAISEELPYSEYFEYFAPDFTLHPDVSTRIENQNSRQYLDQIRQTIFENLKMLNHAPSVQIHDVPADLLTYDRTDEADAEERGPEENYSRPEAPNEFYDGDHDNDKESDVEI
T1 sequence (Q9Y618 395-489 partner limits assumed): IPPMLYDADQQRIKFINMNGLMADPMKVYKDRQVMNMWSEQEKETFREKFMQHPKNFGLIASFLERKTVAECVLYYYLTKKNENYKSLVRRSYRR
Procedure: The activity of the curcuphenol analogues was assessed with purified HDAC enzymes from all classes I, II, and IV, as well as a select member of HDAC class III (SIRT1). HDACs 1-9 and SIRT1 were evaluated using HDAC Fluorogenic Assay Kits (BPS Biosciences). All assays were completed in black-sided clear-bottom 96 well plates (PerkinElmer), and all treatments were plated in triplicates. Treatment started at 5 μM and was two-fold diluted to a concentration 0.02 μM. The assays were measured using the Synergy HI hybrid reader (BioTek) and Gen5 software (BioTek), excitation was set to 360 nm and detection was measured at 450 nm with a gain of 100. […] Luminescence was read 30 minutes after HDAC-Glo™I/II reagent was added using the Synergy HI hybrid reader (BioTek) and Gen5 software (Bio-Tek). […] The relative mean of activity of the HDAC being measured was determined and all wells that received treatment were divided this average, to give a percentage of activity.
To evaluate the effect of the compounds on specific HDACs, their activity was assessed with purified HDAC enzymes from all classes I, II, and IV, as well as a select member of HDAC class III (SIRT1). HDACs 1-9 and SIRT1 were evaluated using HDAC Fluorogenic Assay Kits (BPS Biosciences) following the manufacturer's recommendations. […] The assays were measured using the Synergy HI hybrid reader (BioTek) and Gen5 software (Bio-Tek). […]

SIRT1 = biological target: T2, SIRT1 (Homo sapiens, UniProt Q96EB6); experiment: Individualized HDAC assay, SIRT1; type: biochemical; conditions: purified enzyme, 5 to 0.02 μM
T2 construct: purchased BPS Biosciences
T2 sequence (Q96EB6 1-747): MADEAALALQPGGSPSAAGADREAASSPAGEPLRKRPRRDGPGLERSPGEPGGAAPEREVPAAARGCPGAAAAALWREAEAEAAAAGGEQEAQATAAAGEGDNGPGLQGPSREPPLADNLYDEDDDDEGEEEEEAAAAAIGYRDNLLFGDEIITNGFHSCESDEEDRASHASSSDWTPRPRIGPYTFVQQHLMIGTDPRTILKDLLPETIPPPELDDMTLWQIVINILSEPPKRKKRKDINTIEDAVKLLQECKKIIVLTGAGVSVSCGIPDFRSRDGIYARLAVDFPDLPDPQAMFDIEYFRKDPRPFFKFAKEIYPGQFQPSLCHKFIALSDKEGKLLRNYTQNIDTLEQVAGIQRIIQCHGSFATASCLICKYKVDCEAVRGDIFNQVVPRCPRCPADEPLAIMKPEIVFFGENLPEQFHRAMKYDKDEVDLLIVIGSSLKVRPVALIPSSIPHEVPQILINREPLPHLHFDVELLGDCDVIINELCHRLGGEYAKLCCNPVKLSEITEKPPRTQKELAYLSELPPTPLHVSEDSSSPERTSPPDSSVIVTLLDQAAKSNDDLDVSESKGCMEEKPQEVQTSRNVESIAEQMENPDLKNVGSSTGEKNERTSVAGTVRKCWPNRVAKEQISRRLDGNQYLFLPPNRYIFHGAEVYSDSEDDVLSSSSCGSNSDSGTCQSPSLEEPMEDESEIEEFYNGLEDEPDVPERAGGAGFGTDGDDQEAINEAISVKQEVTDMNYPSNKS
Procedure: The activity of the curcuphenol analogues was assessed with purified HDAC enzymes from all classes I, II, and IV, as well as a select member of HDAC class III (SIRT1). HDACs 1-9 and SIRT1 were evaluated using HDAC Fluorogenic Assay Kits (BPS Biosciences). All assays were completed in black-sided clear-bottom 96 well plates (PerkinElmer), and all treatments were plated in triplicates. Treatment started at 5 μM and was two-fold diluted to a concentration 0.02 μM. The assays were measured using the Synergy HI hybrid reader (BioTek) and Gen5 software (BioTek), excitation was set to 360 nm and detection was measured at 450 nm with a gain of 100. Alternatively HDAC 10 and 11 (BPS Biosciences) were optimized for HDAC concentration using the HDAC-Glo™ I/II Assay and Screening System (Promega). Following optimization each HDAC was run following the Promega protocol in black-sided clear-bottomed 96 well plates in triplicates with same treatments listed above (PerkinElmer). Luminescence was read 30 minutes after HDAC-Glo™I/II reagent was added using the Synergy HI hybrid reader (BioTek) and Gen5 software (Bio-Tek). […] To calculate percent activity, the average of blank wells was subtracted from all treatment groups. The relative mean of activity of the HDAC being measured was determined and all wells that received treatment were divided this average, to give a percentage of activity.
To evaluate the effect of the compounds on specific HDACs, their activity was assessed with purified HDAC enzymes from all classes I, II, and IV, as well as a select member of HDAC class III (SIRT1). HDACs 1-9 and SIRT1 were evaluated using HDAC Fluorogenic Assay Kits (BPS Biosciences) following the manufacturer's recommendations. Compound treatment started at 5 μM and was two-fold diluted to a concentration 0.02 μM. Alternatively, HDAC 10 and 11 assays (BPS Biosciences) were optimized to be used with the HDAC-Glo™ I/II Assay and Screening System (Promega). The assays were measured using the Synergy HI hybrid reader (BioTek) and Gen5 software (Bio-Tek). […] To calculate the fold change in HDAC activity, the values from each treated well were divided by the relative mean of activity of the specific HDAC being measured.

| SMILES | anti-tumour effect compared among the treatments [1] | tumour volume / tumour growth compared to vehicle control [1] | tumour volume / tumour growth compared to vehicle control ([1]; listed as PC-02-113) | body weight [1] | HDAC3 activity (HDAC3) | SIRT1 activity (SIRT1) | SIRT1 activity (SIRT1; listed as P03-7-1) | SIRT1 activity (SIRT1; listed as PO-3-97-1) |
| --- | --- | --- | --- | --- | --- | --- | --- | --- |
| CC(C)=CCCCc1ccc(C)cc1O [P02-113] | not found to be as significant as P03-97-1 or TSA; also recorded: slightly larger | reduced; also recorded: statistically significant reduction of tumour volume | suppresses growth of tumors | remained stable; also recorded: no significant changes | no significant change in HDAC activity | did not demonstrate a change in activity; also recorded: no effect was observed; also recorded: no change in activity | – | – |
| COc1ccc(C(C)CCC=C(C)C)c(O)c1 (stereo not shown) [P03-97-1] | significant anti-tumour effect; also recorded: greater reduction in tumour burden | reduced; also recorded: statistically significant reduction of tumour volume; also recorded: suppresses growth of tumors | – | remained stable; also recorded: no significant changes | no significant change in HDAC activity | did not demonstrate a change in activity | no change in activity | no effect was observed |
